In ChEMBL document CHEMBL1201862, “PubChem BioAssay data set” (2004):
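Tested at 5 concentrations; 48 h exposure; 96-well plates; endpoints linearly interpolated, else capped at highest concentration. GI50 = concentration required for 50% inhibition of growth.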 Active and inactive are the calls of the source. Rule as the data show it: active = GI50 up to about 1.1 µM and inactive = higher.

Assays:
Assay in all cases: inhibition of tumour cell growth, NCI panel, 48 h
T47D = system: T47D
CCRF-CEM = system: CCRF-CEM
CAKI-1 = system: CAKI-1
EKVX = system: EKVX
MCF7 = system: MCF7
SK-MEL-5 = system: SK-MEL-5
NCI-H522 = system: NCI-H522
MDA-N = system: MDA-N
K562 = system: K562
MDA-MB-231 = system: MDA-MB-231
HCT-116 = system: HCT-116
M14 = system: M14
SW-620 = system: SW-620
NCI-H460 = system: NCI-H460
PC-3 = system: PC-3
BT-549 = system: BT-549
UACC-257 = system: UACC-257
OVCAR-4 = system: OVCAR-4
UACC-62 = system: UACC-62
TK-10 = system: TK-10

| SMILES | GI50 (T47D) | GI50 (CCRF-CEM) | GI50 (CAKI-1) | GI50 (EKVX) | GI50 (MCF7) | GI50 (SK-MEL-5) | GI50 (NCI-H522) | GI50 (MDA-N) | GI50 (K562) | GI50 (MDA-MB-231) | GI50 (HCT-116) | GI50 (M14) | GI50 (SW-620) | GI50 (NCI-H460) | GI50 (PC-3) | GI50 (BT-549) | GI50 (UACC-257) | GI50 (OVCAR-4) | GI50 (UACC-62) | GI50 (TK-10) |
| --- | --- | --- | --- | --- | --- | --- | --- | --- | --- | --- | --- | --- | --- | --- | --- | --- | --- | --- | --- | --- |
| N#CCCN(CCCN(C(=O)Nc1ccccc1)c1ccccc1)C(=O)Nc1ccccc1 | > 100 µM (inactive) | 33.7 µM (inactive) | 15 µM (inactive) | > 100 µM (inactive) | 84.5 µM (inactive) | > 100 µM (inactive) | > 100 µM (inactive) | > 100 µM (inactive) | 54.3 µM (inactive) | > 100 µM (inactive) | > 100 µM (inactive) | > 100 µM (inactive) | > 100 µM (inactive) | 77.4 µM (inactive) | 73.3 µM (inactive) | > 100 µM (inactive) | > 100 µM (inactive) | > 100 µM (inactive) | > 100 µM (inactive) | > 100 µM (inactive) |
| COc1ccc(S(=O)(=O)N/N=C/C(=O)O)cc1 | 695 µM (inactive) | 176 µM (inactive) | 458 µM (inactive) | 1160 µM (inactive) | 409 µM (inactive) | 400 µM (inactive) | 275 µM (inactive) | 760 µM (inactive) | 501 µM (inactive) | 822 µM (inactive) | 445 µM (inactive) | 684 µM (inactive) | 485 µM (inactive) | 359 µM (inactive) | 389 µM (inactive) | 284 µM (inactive) | 849 µM (inactive) | 524 µM (inactive) | 327 µM (inactive) | 832 µM (inactive) |
| Nc1c2c(nc3ccccc13)-c1ccccc1NCCC2 | 26.1 µM (inactive) | 26.4 µM (inactive) | 30.8 µM (inactive) | 38.3 µM (inactive) | 34.2 µM (inactive) | 15.1 µM (inactive) | 26.9 µM (inactive) | 17.5 µM (inactive) | 23.4 µM (inactive) | 19.7 µM (inactive) | 23.3 µM (inactive) | 17.4 µM (inactive) | 23.4 µM (inactive) | 15.3 µM (inactive) | 20.4 µM (inactive) | 50.5 µM (inactive) | 13.6 µM (inactive) | 47.3 µM (inactive) | 18.3 µM (inactive) | 19 µM (inactive) |
| COc1ccc(CNc2nc3cc(C(F)(F)F)ccc3nc2-c2ccccc2)cc1OC | 24.3 µM (inactive) | 22.6 µM (inactive) | 18 µM (inactive) | 18.7 µM (inactive) | 16.1 µM (inactive) | 17.9 µM (inactive) | 36.1 µM (inactive) | 37.2 µM (inactive) | 26.1 µM (inactive) | 53.8 µM (inactive) | 30.3 µM (inactive) | 49.3 µM (inactive) | 18.5 µM (inactive) | 19.5 µM (inactive) | 28.2 µM (inactive) | 47.5 µM (inactive) | 28.4 µM (inactive) | 43.1 µM (inactive) | 50.6 µM (inactive) | 53.2 µM (inactive) |
| CC1OC2/C=C\CC(O)C(C)(C)C3CCC(C)C4(O3)O[B-]35OC(C(=O)OC1C2)C1(OC(CCC1C)C(C)(C)C(O)C/C=C\C1CC(OC(=O)C4O3)C(C)O1)O5 (stereo not given) | 2.81 µM (inactive) | 0.718 µM (active) | 7.6 µM (inactive) | 2.15 µM (inactive) | 2.01 µM (inactive) | 2.21 µM (inactive) | 0.344 µM (active) | 3.15 µM (inactive) | 7.46 µM (inactive) | 1.99 µM (inactive) | 2.01 µM (inactive) | 2.11 µM (inactive) | 2.94 µM (inactive) | 1.6 µM (inactive) | 2.77 µM (inactive) | 2.54 µM (inactive) | 1.77 µM (inactive) | 7.76 µM (inactive) | 2.01 µM (inactive) | 2.97 µM (inactive) |
| COC(COC(=O)N1CCN(C=O)CC1)C1=C(N2CC2)C(=O)C(C)=C(N2CC2)C1=O (stereo not given) | 0.257 µM (active) | 0.13 µM (active) | 0.12 µM (active) | 5.08 µM (inactive) | 0.0313 µM (active) | 0.172 µM (active) | 0.107 µM (active) | 0.248 µM (active) | 0.462 µM (active) | 2.29 µM (inactive) | 0.157 µM (active) | 0.202 µM (active) | 0.141 µM (active) | < 0.0278 µM (active) | 0.461 µM (active) | 0.455 µM (active) | 0.309 µM (active) | 0.585 µM (active) | 0.169 µM (active) | 0.579 µM (active) |
| COc1cc([C@@H]2c3cc4c(cc3[C@@H](/N=C/c3ccc(C(=O)O[C@H]5C[C@H]6OC[C@@]6(OC(C)=O)[C@H]6[C@H](OC(=O)c7ccccc7)[C@]7(O)C[C@H](OC(=O)[C@H](OC(=O)c8ccc(/C=N/[C@@H]9c%10cc%11c(cc%10[C@@H](c%10cc(OC)c(O)c(OC)c%10)[C@H]%10C(=O)OC[C@@H]%109)OCO%11)cc8)[C@@H](NC(=O)c8ccccc8)c8ccccc8)C(C)=C([C@@H](OC(C)=O)C(=O)[C@]56C)C7(C)C)cc3)C3COC(=O)C32)OCO4)cc(C)c1O (stereo not given in full) | > 50 µM (inactive) | 30 µM (inactive) | 12.8 µM (inactive) | 14.5 µM (inactive) | 7.6 µM (inactive) | 5.28 µM (inactive) | 9.06 µM (inactive) | 1.82 µM (inactive) | 2.19 µM (inactive) | > 25.2 µM (inactive) | 9.08 µM (inactive) | 6.49 µM (inactive) | 13.4 µM (inactive) | 15.3 µM (inactive) | 6.58 µM (inactive) | 49.7 µM (inactive) | 26.2 µM (inactive) | > 29.6 µM (inactive) | 6.32 µM (inactive) | > 50 µM (inactive) |
| CC(C)(C)n1c(=O)n(C(=O)C(Cl)(Cl)Cl)n(C(=O)C(Cl)(Cl)Cl)c1=O | > 100 µM (inactive) | > 100 µM (inactive) | > 100 µM (inactive) | > 100 µM (inactive) | > 100 µM (inactive) | > 100 µM (inactive) | > 100 µM (inactive) | > 100 µM (inactive) | > 100 µM (inactive) | > 100 µM (inactive) | > 100 µM (inactive) | > 100 µM (inactive) | > 100 µM (inactive) | > 100 µM (inactive) | > 100 µM (inactive) | > 100 µM (inactive) | > 100 µM (inactive) | > 100 µM (inactive) | > 100 µM (inactive) | > 100 µM (inactive) |
| CC[C@@H](/C=C\CCC1(C[C@H](O)CCC=C(C)C)OCCO1)O[Si](C(C)C)(C(C)C)C(C)C | 19.1 µM (inactive) | 29 µM (inactive) | 28.6 µM (inactive) | 28.8 µM (inactive) | 17.3 µM (inactive) | 17.8 µM (inactive) | 20.2 µM (inactive) | 33.5 µM (inactive) | 20 µM (inactive) | 17.3 µM (inactive) | 17 µM (inactive) | 26.5 µM (inactive) | 26.4 µM (inactive) | 21.9 µM (inactive) | 29.8 µM (inactive) | 30.5 µM (inactive) | 22.5 µM (inactive) | 50.8 µM (inactive) | 22.6 µM (inactive) | 20.6 µM (inactive) |
| CCN(CC)c1nc(=O)c(C(=O)C(C)(C)C)c(C(C)(C)C)o1 | > 100 µM (inactive) | > 100 µM (inactive) | > 100 µM (inactive) | > 100 µM (inactive) | > 100 µM (inactive) | > 100 µM (inactive) | > 100 µM (inactive) | > 100 µM (inactive) | > 100 µM (inactive) | > 100 µM (inactive) | > 100 µM (inactive) | > 100 µM (inactive) | > 100 µM (inactive) | > 100 µM (inactive) | > 100 µM (inactive) | > 100 µM (inactive) | > 100 µM (inactive) | > 100 µM (inactive) | > 100 µM (inactive) | > 100 µM (inactive) |
| CCOC(=O)/C=C(\C(=O)OCC)n1ccc(=O)n(Cc2cn(CCCCOC(C)=O)nn2)c1=O | 5.36 µM (inactive) | 1.28 µM (inactive) | 4.25 µM (inactive) | 13 µM (inactive) | 7.69 µM (inactive) | 20.5 µM (inactive) | 1.72 µM (inactive) | 19.5 µM (inactive) | 4.59 µM (inactive) | 18.6 µM (inactive) | 11.2 µM (inactive) | 23.9 µM (inactive) | 3.14 µM (inactive) | 13.6 µM (inactive) | 17.1 µM (inactive) | 10.4 µM (inactive) | 17.4 µM (inactive) | 19.4 µM (inactive) | 16.1 µM (inactive) | 6.4 µM (inactive) |
| COc1cc(C2c3cc4c(cc3[C@@H](Nc3ccc(C#N)cc3)C3COC(=O)[C@H]23)OCO4)cc(OC)c1O (stereo not given in full) | 0.828 µM (active) | 0.524 µM (active) | 0.436 µM (active) | 16.7 µM (inactive) | 0.881 µM (active) | 0.661 µM (active) | 1.88 µM (inactive) | 6.21 µM (inactive) | 0.462 µM (active) | 9.31 µM (inactive) | 2.01 µM (inactive) | 1.35 µM (inactive) | 0.889 µM (active) | 0.038 µM (active) | 9.82 µM (inactive) | 7.74 µM (inactive) | 7.26 µM (inactive) | 3.43 µM (inactive) | 0.962 µM (active) | 7.82 µM (inactive) |
| Nc1ccc2c(c1)S(=O)(=O)c1cc(O)ccc1O2 | > 100 µM (inactive) | > 100 µM (inactive) | 45.2 µM (inactive) | > 100 µM (inactive) | > 100 µM (inactive) | > 100 µM (inactive) | > 100 µM (inactive) | > 100 µM (inactive) | > 100 µM (inactive) | > 100 µM (inactive) | > 100 µM (inactive) | > 100 µM (inactive) | > 100 µM (inactive) | > 100 µM (inactive) | > 100 µM (inactive) | 45.6 µM (inactive) | > 100 µM (inactive) | > 100 µM (inactive) | > 100 µM (inactive) | > 100 µM (inactive) |
